Columns and labels:
SEMK2-M1 = assay: In vivo xenograft model of MLL rearranged ALL with bioluminescent imaging, SEMK2-M1 cells; parameters: species or system SCID-beige mice; settings: 150 mg/kg once daily via gavage, 5 days per week
Description: (§1) To determine if PKC412 is effective against an in vivo model of MLL rearranged ALL, a xenograft model system in which leukemia burden can be quantitated with in vivo bioluminescent imaging is established. SEMK2-M1 and RS4; 11 (ATCC Number: CRL-1873) cell lines are engineered to express firefly luciferase fused to neomycin phosphotransferase by retroviral transduction. One million leukemia cells are then injected into the tail vein of SCID-beige mice. Within 1 week, the bioluminescent signal is detectable in a location consistent with the femur. Pathologic analysis of similarly xenografted mice confirm that the leukemia cells are initially found in the mouse bone marrow present in the femoral head. The leukemia subsequently progresses to replace the normal bone marrow and involve other organs, thus mimicking the progression of human leukemia. Once the leukemia had engrafted, as can be determined by the presence of a bioluminescent signal, a cohort of mice is treated with either 150 mg/kg PKC412 or vehicle once daily via gavage for 5 days per week. Serial imaging of the two cohorts is then performed to quantitate disease burden. […] Thus, oral administration of PKC412 is effective in vivo against human lymphoblastic leukemia with an MLL rearranged ALL arrangement and activated FLT3.

RS4; 11 = assay: In vivo xenograft model of MLL rearranged ALL with bioluminescent imaging, RS4; 11 cells; settings: SCID-beige mice injected with RS4; 11 cells (does not over-express FLT3); 150 mg/kg once daily via gavage, 5 days per week
Description: as §1

Question: `CO[C@@H]1[C@H](N(C)C(=O)c2ccccc2)C[C@H]2O[C@]1(C)n1c3ccccc3c3c4c(c5c6ccccc6n2c5c31)C(=O)NC4` [PKC412, N-benzoyl-staurosporine] was tested. Which “quantification of total leukemic burden (bioluminescent imaging)” value (SEMK2-M1; SCID-beige mice engrafted with SEMK2-M1 cells (over-expresses FLT3), after 2 weeks of therapy) did it give?
Answer: anti-tumor efficacy

Question: What about the “tumor burden by pathological analysis at completion of the study” value (SEMK2-M1; SEMK2-M1 injected mice, compared to control mice) of the same compound?
Answer: vast differences in tumor burden

Question: And the “anti-tumor effect on leukemia (bioluminescent imaging)” value (RS4; 11)?
Answer: no effect

From patent US9700565B2, “Method of treating mixed lineage leukemia gene-rearranged acute lymphoblastic leukemias” (Dana-Farber Cancer Institute, Inc., priority 2003, dated 2017)
